Measured values from patent publication US6617351B1, “Amide, carbamate, and urea derivatives” (Eli Lilly and Company, priority 1998, dated 2003).

Target: T1, human GluR4B receptor (Homo sapiens, UniProt P48058)
T1 construct: expressed in transfected cells; host or cells: HEK293
Assay: potentiation of agonist-induced excitability of human GluR4B receptor expressed in HEK 293 cells
Type: cell-based
Text: The ability of compounds of formula I to potentiate glutamate receptor-mediated response may be determined using fluorescent calcium indicator dyes (Molecular Probes, Eugene, Oreg., Fluo-3) and by measuring glutamate-evoked efflux of calcium into GluR4 transfected HEK293 cells, as described in more detail below.
In one test, 96 well plates containing confluent monolayers of HEK cells stably expressing human GluR4B (obtained as described in European Patent Application Publication Number EP-A1-583917) are prepared. […]
Each test is then performed as follows. […] A second fluorescent reading is taken after 5 minutes incubation. 15 μl of 400 μM glutamate solution is then added to each well (final glutamate concentration 100 μM), and a third reading is taken. The activities of test compounds and cyclothiazide solutions are determined by subtracting the second from the third reading (fluorescence due to addition of glutamate in the presence or absence of test compound or cyclothiazide) and are expressed relative to enhance fluorescence produced by 100 μM cyclothiazide.
In another test, HEK293 cells stably expressing human GluR4 (obtained as described in European Patent Application Publication No. EP-A1-0583917) are used in the electro-physiological characterization of AMPA receptor potentiators. […] Responses to 1 mM glutamate are then determined in the presence of test compound. […]

T1 sequence (P48058 21-902): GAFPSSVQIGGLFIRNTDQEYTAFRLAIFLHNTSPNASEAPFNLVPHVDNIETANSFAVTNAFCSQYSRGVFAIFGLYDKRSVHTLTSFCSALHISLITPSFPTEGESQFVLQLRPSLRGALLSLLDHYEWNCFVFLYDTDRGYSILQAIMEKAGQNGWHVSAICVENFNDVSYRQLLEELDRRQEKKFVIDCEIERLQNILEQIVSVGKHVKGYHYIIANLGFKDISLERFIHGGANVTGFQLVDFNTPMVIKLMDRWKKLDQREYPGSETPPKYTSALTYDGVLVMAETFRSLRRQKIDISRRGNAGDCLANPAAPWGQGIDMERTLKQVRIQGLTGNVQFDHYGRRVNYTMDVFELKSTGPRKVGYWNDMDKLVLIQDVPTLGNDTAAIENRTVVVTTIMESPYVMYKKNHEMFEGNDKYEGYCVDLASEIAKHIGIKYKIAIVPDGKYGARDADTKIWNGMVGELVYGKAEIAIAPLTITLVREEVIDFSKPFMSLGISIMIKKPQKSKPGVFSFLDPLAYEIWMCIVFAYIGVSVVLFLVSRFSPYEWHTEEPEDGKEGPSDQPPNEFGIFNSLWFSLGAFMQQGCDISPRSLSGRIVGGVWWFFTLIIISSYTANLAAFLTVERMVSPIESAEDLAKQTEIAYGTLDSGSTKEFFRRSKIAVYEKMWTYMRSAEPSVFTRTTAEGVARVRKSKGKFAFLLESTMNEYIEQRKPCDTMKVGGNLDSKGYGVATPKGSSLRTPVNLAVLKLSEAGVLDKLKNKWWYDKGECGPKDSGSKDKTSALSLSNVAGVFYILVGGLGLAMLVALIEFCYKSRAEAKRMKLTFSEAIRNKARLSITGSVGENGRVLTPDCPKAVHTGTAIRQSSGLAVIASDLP

NS(=O)(=O)c1cc2c(cc1Cl)NC(C1CC3C=CC1C3)NS2(=O)=O (stereo not shown) [cyclothiazide]
potentiation of agonist-induced excitability: potentiate agonist-induced excitability
